Assay results taken from PubChem BioAssay (NCI).
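All cell lines were grown in 96-well plates and treated with compound for 48 hours. Here, GI50 denotes the concentration required for 50% inhibition of growth. Definition used: TGI = concentration required for complete inhibition of growth.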

Assays:
Test in all cases: NCI-60 cell line screen, 48 h
COLO 205 colon = test system: COLO 205 colon
UO-31 renal = test system: UO-31 renal
SNB-75 CNS = test system: SNB-75 CNS
HL-60(TB) leukemia = test system: HL-60(TB) leukemia
UACC-257 melanoma = test system: UACC-257 melanoma
SK-MEL-5 melanoma = test system: SK-MEL-5 melanoma
OVCAR-5 ovarian = test system: OVCAR-5 ovarian
TK-10 renal = test system: TK-10 renal
PC-3 prostate = test system: PC-3 prostate
SR leukemia = test system: SR leukemia
HT29 colon = test system: HT29 colon
NCI-H522 lung = test system: NCI-H522 lung
OVCAR-3 ovarian = test system: OVCAR-3 ovarian
SW-620 colon = test system: SW-620 colon
T-47D breast = test system: T-47D breast
CCRF-CEM leukemia = test system: CCRF-CEM leukemia
HS 578T breast = test system: HS 578T breast
OVCAR-4 ovarian = test system: OVCAR-4 ovarian
A549 NSCLC = test system: A549 NSCLC
786-0 renal = test system: 786-0 renal
NCI-H23 lung = test system: NCI-H23 lung
SNB-19 CNS = test system: SNB-19 CNS
RPMI-8226 leukemia = test system: RPMI-8226 leukemia
K-562 leukemia = test system: K-562 leukemia
SK-MEL-28 melanoma = test system: SK-MEL-28 melanoma
NCI-H460 lung = test system: NCI-H460 lung
MDA-MB-435 = test system: MDA-MB-435
HCT-116 colon = test system: HCT-116 colon
SN12C renal = test system: SN12C renal

## C#CCCCN(CCNc1ccnc2cc(Cl)ccc12)C(=O)CCC(=O)O[C@@H]1O[C@@H]2OC3(C)CC[C@H]4[C@H](C)CC[C@@H]([C@H]1C)[C@@]24OO3
COLO 205 colon
  GI50: 1390 nM
  TGI: > 11500 nM
UO-31 renal
  GI50: 1190 nM
  TGI: > 11500 nM
SNB-75 CNS
  GI50: > 11500 nM
  TGI: > 11500 nM
HL-60(TB) leukemia
  GI50: 364 nM
  TGI: 1820 nM
UACC-257 melanoma
  GI50: 2300 nM
  TGI: > 11500 nM
SK-MEL-5 melanoma
  GI50: 1180 nM
  TGI: 8980 nM
OVCAR-5 ovarian
  GI50: 974 nM
  TGI: > 11500 nM
TK-10 renal
  GI50: 8120 nM
  TGI: > 11500 nM
PC-3 prostate
  GI50: 194 nM
  TGI: > 11500 nM
SR leukemia
  GI50: 475 nM
  TGI: 9370 nM
HT29 colon
  GI50: 701 nM
  TGI: > 11500 nM
NCI-H522 lung
  GI50: 788 nM
  TGI: > 11500 nM
OVCAR-3 ovarian
  GI50: 876 nM
  TGI: > 11500 nM
SW-620 colon
  GI50: 643 nM
  TGI: > 11500 nM
T-47D breast
  GI50: 402 nM
  TGI: > 11500 nM
CCRF-CEM leukemia
  GI50: 697 nM
  TGI: > 11500 nM
HS 578T breast
  GI50: 1830 nM
  TGI: > 11500 nM
OVCAR-4 ovarian
  GI50: 1390 nM
  TGI: > 11500 nM
A549 NSCLC
  GI50: 7370 nM
  TGI: > 11500 nM
786-0 renal
  GI50: 5670 nM
  TGI: > 11500 nM
NCI-H23 lung
  GI50: 1080 nM
  TGI: > 11500 nM
SNB-19 CNS
  GI50: 7160 nM
  TGI: > 11500 nM
RPMI-8226 leukemia
  GI50: 399 nM
  TGI: > 11500 nM
K-562 leukemia
  GI50: 448 nM
  TGI: > 11500 nM
SK-MEL-28 melanoma
  GI50: 2640 nM
  TGI: > 11500 nM
NCI-H460 lung
  GI50: 5090 nM
  TGI: > 11500 nM
MDA-MB-435
  GI50: 772 nM
  TGI: > 11500 nM
HCT-116 colon
  GI50: 554 nM
  TGI: > 11500 nM
SN12C renal
  GI50: 3060 nM
  TGI: > 11500 nM
